Reference: patent US20040040047A1 (priority 1998, published 2004)
Values belong to the molecule of their own block, whether it stands above or below them.

Experiments:
inactivated YAMA = target: T1, inactivated YAMA (Homo sapiens, UniProt P42574+P62942, C163S/F37V); assay: Luciferase survival assay, BPH-derived smooth muscle cells transfected with inactivated YAMA; type: cell-based; conditions: with or without AP1903, 24 hours
T1 construct: caspase-3 C163S (same polypeptide); expressed in transfected cells; host or cells: JD and CR-2a (smooth muscle cell lines from BPH patients)
Description: (§1) Conditional Fas, YAMA and a YAMA construct containing a single, inactivating point mutation were cotransfected with a luciferase reporter plasmid (pGL2) into JD and CR-2a cell lines. These are smooth muscle cell lines derived from prostate tissue samples taken from patients with BPH. […] Cells were then lysed and assayed for luciferase activity as a marker of cell survival.
(§2) It is worth noting that a conditional Fas-based treatment for BPH is not possible since the Fas construct was not effective in causing apoptosis in BPH derived cell lines. It is quite likely that Fas-based methods will be ineffective in many other cell types, thus severely limiting the utility of this approach.

Fv2-casp-3 [1] = target: T2, Fv2-casp-3 (Homo sapiens, UniProt P62942, F37V); assay: Western blot of processing and degradation of Fv2-casp-3 in Jurkat cells; type: cell-based
T2 construct: caspase-3 (same polypeptide); expressed in transfected cells; host or cells: Jurkat TAg
Experimental: Jurkat TAg cells were electroporated with 2 μg of plasmid, cultured 36 hours, and stimulated with drug for the indicated time period. Approximately 5×10^5 cells were lysed in 100 μl RIPA buffer (0.01M TrisHCl pH 8.0, 140 mM NaCl, 1% Triton X-100, 1 mM phenylmethylsulfonyl fluoride, 1% sodium deoxycholate, 0.1% SDS) on ice for 30 minutes. Cell debris were pelleted and supernatants were boiled in 1:1 Laemmli sample buffer (with 5% β-ME) for 5 minutes. […] Membranes were incubated with monoclonal anti-HA epitope antibody, HA.11 (BABCO) followed by polyclonal HRP-conjugated goat anti-mouse antibody (Bio-Rad). Bands were detected with SuperSignal-Chemiluminescent Substrate (Pierce).
Processing of caspase-3, and other caspases, ordinarily involves two or more cleavages after aspartic acid residues. To confirm that the CID-mediated diminution of reporter activity was caused by activation of the conditional caspases, the processing and degradation of conditional caspase-3 was directly examined. Jurkat cells were transfected 2 μg Fv2-casp-3 or Fv2-casp-3/S163. […] Following these incubations, cell extracts were analyzed by western blotting using monoclonal antibodies to an epitope tag (HA) placed at both ends of the construct.
The breakdown products of caspase-3 activation were not seen even though epitope tags were present at both ends of the protein. […] Therefore, homomultimerization of the caspases, caspase-1 and caspase-3, is sufficient for their activation.

conditional YAMA = target: T3, conditional YAMA (Homo sapiens, UniProt P62942, F37V); assay: Luciferase survival assay, BPH-derived smooth muscle cells (JD, CR-2a) transfected with conditional YAMA; type: cell-based
T3 construct: caspase-3 / YAMA (same polypeptide); expressed in transfected cells; host or cells: JD and CR-2a (smooth muscle cell lines from BPH patients)
Description: as §1, §2

conditional Fas = target: T4, conditional Fas (Homo sapiens, UniProt P62942, F37V); assay: Luciferase survival assay, BPH-derived smooth muscle cells transfected with conditional Fas; type: cell-based; conditions: with or without AP1903, 24 hours
T4 construct: Fas cytoplasmic portion (same polypeptide); expressed in transfected cells; host or cells: JD and CR-2a (smooth muscle cell lines from BPH patients)
Description: as §1, §2

JD-2a cells = assay: Fluorescent microscopy of JD-2a cells infected with Adv-Fv1-YAMA; type: cell-based, human; conditions: Adv-Fv1-YAMA MOI ~25, 50 nM AP1903 for 24 hours
Experimental: Replication deficient (ΔE1) adenoviral vectors expressing green flourescent protein and conditional Caspase 1 (ICE) or Caspase 3 (YAMA) were engineered. These vectors independently express green fluorescent protein so that infected cells are easily identified by their green color under fluorescent microscopy.
40,000 JD-2a cells per well were plated in 24-well plates and infected at a multiplicity-of-infection (MOI) of ˜25 with Adv-Fv1-YAMA, an adenoviral vector expressing CID-regulated YAMA. […] All of the cells incubated with virus and maintained in control media appeared green, and were clearly attached and viable, similar to non-fluorescent non-infected JD-2a cells (FIG. 47b).

Fv2-casp-3/S163 = target: T5, Fv2-casp-3/S163 (Homo sapiens, UniProt P42574+P62942, C163S/F37V); assay: SEAP reporter assay, Jurkat TAg cells transfected with inactive Fv2-casp-3/S163; type: cell-based; conditions: 100 nM AP1903, enzymatically inactive caspase-3
T5 construct: caspase-3 C163S (same polypeptide); expressed in transfected cells; host or cells: Jurkat TAg
Experimental: Jurkat TAg cells (10^7) in log phase growth were electroporated (950 μF, 250V; Gene Pulser II) with expression plasmid and 1-2 μg SRα-SEAP. After 24 hours, transformed cells were stimulated with CID or anti-Fas antibody (CH.11, Kamiya Biomedical). After an additional 20 hours, supernatants were assayed for SEAP activity as described previously (15). Units of SEAP activity are reported directly and as a percentage of activity relative to no stimulation within the same transfections (% Relative Activity).
In contrast to caspase-1 and Fas, conditional caspase-3 alleles are not apparently autotoxic (FIGS. 7-9). With reference to FIGS. 7 and 8, Jurkat TAg cells were transiently-transfected with: 2 μg Fv2-casp-3 (open squares), or 2 μg Fv2-casp-3/S163 (closed squares). With reference to FIG. 9, Jurkat TAg cells were transfected with: 2 μg Fpk3-casp-3/S163 (closed triangles), 2 μg Fpk3-casp-3 (open squares), or 2 μg Fpk3-Δ20casp-3 (closed squares). After 20 hours, transfected cells were treated and analyzed as before. Data is representative of at least three independent experiments performed in duplicate.

Fv2-casp-3 [2] = target: T2, Fv2-casp-3; assay: SEAP reporter assay, Jurkat TAg cells transfected with Fv2-casp-3; type: cell-based; conditions: 2 μg Fv2-casp-3, Jurkat TAg, in the presence of AP1903
RM-1 cells = conditions: single treatment with adenovirus expressing HSV-tk and ganciclovir; cited from earlier work
[3] = test system: tumor cell types expressing herpes virus tk; conditions: cited from earlier work
S-Fv3-Casp3 = target: T6, S-Fv3-Casp3 (Homo sapiens, UniProt P62942, F37V); assay: SEAP reporter assay, Jurkat TAg cells, S-Fv3-Casp3; type: cell-based; conditions: construct containing three Fvs; read-out: IC50 (decrease in SEAP activity)
T6 construct: caspase-3 (same polypeptide); expressed in transfected cells; host or cells: Jurkat TAg
Experimental: (§3) Jurkat TAg cells (10^7) in log phase growth were electroporated (950 μF, 250 V) with expression plasmid and 2 μg SRα-SEAP. […] Units of SEAP activity are reported directly and as a percentage of activity relative to no stimulation (“% Relative SEAP activity”). All experiments were repeated at least three times and representative experiments performed with duplicate samples are shown.

FKBP12V36 (Fv) = FKBP12V36 (Fv) (Homo sapiens, UniProt P62942, F37V); assay: CID binding to mutant FKBP12 (F36V, Fv); conditions: relative to AP1903
S-Fv2-Casp1 = target: T7, S-Fv2-Casp1 (Homo sapiens, UniProt P62942, F37V); assay: SEAP reporter assay, Jurkat TAg cells, S-Fv2-Casp1; type: cell-based; conditions: caspase-1 fused to two Fvs, no linker
T7 construct: caspase-1 (same polypeptide); expressed in transfected cells; host or cells: Jurkat TAg
Experimental: as §3

T2 sequence (P62942 2-108 F37V): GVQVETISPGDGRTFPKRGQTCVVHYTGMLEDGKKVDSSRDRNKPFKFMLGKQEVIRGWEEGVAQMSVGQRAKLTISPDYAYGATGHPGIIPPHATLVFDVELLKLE
T3 sequence (P62942 2-108 F37V): as above
T3 sequence (P42574 2-277 partner limits assumed): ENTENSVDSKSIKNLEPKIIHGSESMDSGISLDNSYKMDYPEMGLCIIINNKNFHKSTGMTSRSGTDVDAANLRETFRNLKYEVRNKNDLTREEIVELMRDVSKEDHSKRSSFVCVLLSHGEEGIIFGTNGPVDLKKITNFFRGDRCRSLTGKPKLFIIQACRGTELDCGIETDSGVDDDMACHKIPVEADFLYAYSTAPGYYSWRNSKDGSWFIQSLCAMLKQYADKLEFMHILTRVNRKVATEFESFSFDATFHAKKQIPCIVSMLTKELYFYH
T7 sequence (P62942 2-108 F37V): as the sequence (P62942 2-108 F37V) above
T7 sequence (P29466 2-404 partner limits assumed): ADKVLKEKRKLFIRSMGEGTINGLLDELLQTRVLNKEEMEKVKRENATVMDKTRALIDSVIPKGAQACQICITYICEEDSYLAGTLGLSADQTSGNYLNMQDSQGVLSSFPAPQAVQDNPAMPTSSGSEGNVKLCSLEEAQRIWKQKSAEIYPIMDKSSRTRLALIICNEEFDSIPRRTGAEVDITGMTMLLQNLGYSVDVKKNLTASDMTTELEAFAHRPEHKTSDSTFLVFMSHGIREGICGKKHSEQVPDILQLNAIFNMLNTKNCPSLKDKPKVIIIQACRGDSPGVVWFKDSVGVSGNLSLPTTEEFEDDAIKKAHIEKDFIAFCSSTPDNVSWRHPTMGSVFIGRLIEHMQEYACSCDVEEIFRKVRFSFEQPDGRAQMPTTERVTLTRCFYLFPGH
T6 sequence (P62942 2-108 F37V): as the sequence (P62942 2-108 F37V) above
T6 sequence (P42574 2-277 partner limits assumed): as the sequence (P42574 2-277 partner limits assumed) above
T4 sequence (P62942 2-108 F37V): as the sequence (P62942 2-108 F37V) above
T4 sequence (P25445 191-335 partner limits assumed): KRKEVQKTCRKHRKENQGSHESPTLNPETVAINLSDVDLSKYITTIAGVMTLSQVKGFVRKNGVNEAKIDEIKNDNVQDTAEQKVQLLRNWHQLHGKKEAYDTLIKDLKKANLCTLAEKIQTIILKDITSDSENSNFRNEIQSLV
Sequence of FKBP12V36 (Fv) (P62942 whole entry F37V, the tested form may be a part): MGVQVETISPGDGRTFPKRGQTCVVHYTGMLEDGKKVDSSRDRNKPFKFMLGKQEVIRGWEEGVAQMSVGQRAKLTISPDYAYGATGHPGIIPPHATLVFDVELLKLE

time to full degradation of Fv2-casp-3 (Fv2-casp-3 [1]; 100 nM AP1903): four
time to complete degradation of full-length caspase-3 (Fv2-casp-3 [1]; 500 nM AP1903): ≤ 2 h
concentration sufficient to cause the processing and degradation of the majority of Fv2-casp-3 (Fv2-casp-3 [1]; treated for eight hours, half-log dilutions): 10 nM
reduction of reporter activity (Fv2-casp-3/S163): could not reduce reporter activity
reduction in reporter activity (Fv2-casp-3 [2]): ≈ 65%
Molecule: CC[C@H](C(=O)N1CCCC[C@H]1C(=O)O[C@H](CCc1ccc(OC)c(OC)c1)c1cccc(OCC(=O)NCCNC(=O)COc2cccc([C@@H](CCc3ccc(OC)c(OC)c3)OC(=O)[C@@H]3CCCCN3C(=O)[C@@H](CC)c3cc(OC)c(OC)c(OC)c3)c2)c1)c1cc(OC)c(OC)c(OC)c1 [AP1903]
reduction in the percentage of surviving cells (inactivated YAMA): no significant reduction
reduction in reporter activity (conditional YAMA; 100 μM AP1903 for 24 hours): 82%
luciferase activity (conditional YAMA; treated with 100 μM AP1903 for 24 hours, 668±67 without AP1903): 119±13
reduction in the percentage of surviving cells (conditional Fas): no significant reduction
cells either dead or in the process of undergoing apoptosis (JD-2a cells): > 99%

Molecule: Nc1nc(O)c2ncn(COC(CO)CO)c2n1 [ganciclovir]
reduction in lung colonization (RM-1 cells): 40%
dose up to which the cell line was essentially immune ([3]; ESB cell line): up to 1 μg/mL
time necessary to effect a substantial amount of cell death ([3]; high doses of ganciclovir): 6 to 22 days

Molecule: FK1012
IC50 (S-Fv3-Casp3): ~20 nM
lower affinity of FK1012 for Fv versus AP1903 (FKBP12V36 (Fv)): ten-fold
IC50 (S-Fv2-Casp1): 1 nM
